Values quoted from earlier work as cited in article PMC8089043 (Journal of controlled release : official journal of the …, 2021).

How the values were obtained:
[1] = rats, high doses
[2] = in vivo

Row | Structure (SMILES) | dose exhibiting hepatic and renal toxicities [1] | safety of diets containing gram quantities [2]
1 | CC(C)=CCC[C@]1(C)C=Cc2c(O)c3c(c(CC=C(C)C)c2O1)O[C@]12C(=C[C@@H]4C[C@H]1C(C)(C)O[C@@]2(C/C=C(/C)C(=O)O)C4=O)C3=O [GA, gambogic acid] | > 120 mg/kg | 
2 | O=c1oc2cc(O)ccc2c2ccc(O)cc12 [UA, urolithin A] |  | safe
